Data published in the NIST ThermoML archive (doi:10.1007/s10765-006-0110-x).

Conditions: Liquid, Pulse-echo method

COCCOC [1,2-dimethoxyethane]
speed of sound [m/s]
Conditions	293.15 K	303.15 K	313.15 K	323.15 K	333.15 K	343.15 K	353.15 K
100 kPa	1188.5	1144.8	1101.9	1059.4	1016.5	974.9	932.8
10000 kPa	1242	1201.1	1161.1	1122.4	1083.1	1044.7	1005.8
20000 kPa	1292.4	1252.2	1215.2	1178.7	1142.7	1107	1070
30000 kPa	1336.4	1299.6	1263.9	1229.3	1195.2	1161.4	1127.3
40000 kPa	1378.8	1343.2	1309.2	1275.9	1243.6	1211.6	1178.9
50000 kPa	1418.2	1384.1	1350.7	1319.6	1288.4	1257.6	1226.3
60000 kPa	1455.6	1422.5	1390.5	1361.5	1330.1	1300.5	1270.4
70000 kPa	1490.4	1458	1428.3	1398.6	1369.3	1340.5	1311.3
80000 kPa	1523.9	1492.6	1463.3	1434.7	1406.4	1378.6	1350.2
90000 kPa	1555.7	1525.7	1497	1468.9	1441.3	1414.5	1387
100000 kPa	1586.1	1557.2	1528.8	1501.5	1474.8	1448.7	1421.7

COCCOCCOC [2,5,8-trioxanonane]
speed of sound [m/s]
Conditions	293.15 K	303.15 K	313.15 K	323.15 K	333.15 K	343.15 K	353.15 K
100 kPa	1298.9	1259.3	1219.9	1180.9	1142.4	1104.2	1066.6
10000 kPa	1344.9	1306.7	1269.5	1232.5	1196.4	1160.8	1125.7
20000 kPa	1386.5	1350.6	1315.4	1280.2	1246	1212	1179.3
30000 kPa	1426.6	1392	1357.6	1324.4	1291.4	1259.5	1228.1
40000 kPa	1463.9	1430.4	1397.8	1365.5	1333.7	1303.1	1273.4
50000 kPa	1499.2	1466.9	1435.3	1404	1373.6	1343.9	1314.9
60000 kPa	1532.5	1501.5	1470.5	1440.6	1410.9	1382.1	1354.4
70000 kPa	1565.1	1534.3	1504.4	1475.2	1446.2	1418.6	1391.3
80000 kPa	1595.5	1565.8	1536.7	1508.2	1480.1	1452.9	1426.7
90000 kPa	1624.9	1595.9	1567.6	1539.8	1512.3	1485.9	1460.4
100000 kPa	1653.4	1625.1	1597	1569.9	1543.1	1517.4	1492.3
